For this data set, the target named is T1, Cytochrome P450 4F3 (Homo sapiens, UniProt Q08477).
T1 sequence (Q08477 whole entry): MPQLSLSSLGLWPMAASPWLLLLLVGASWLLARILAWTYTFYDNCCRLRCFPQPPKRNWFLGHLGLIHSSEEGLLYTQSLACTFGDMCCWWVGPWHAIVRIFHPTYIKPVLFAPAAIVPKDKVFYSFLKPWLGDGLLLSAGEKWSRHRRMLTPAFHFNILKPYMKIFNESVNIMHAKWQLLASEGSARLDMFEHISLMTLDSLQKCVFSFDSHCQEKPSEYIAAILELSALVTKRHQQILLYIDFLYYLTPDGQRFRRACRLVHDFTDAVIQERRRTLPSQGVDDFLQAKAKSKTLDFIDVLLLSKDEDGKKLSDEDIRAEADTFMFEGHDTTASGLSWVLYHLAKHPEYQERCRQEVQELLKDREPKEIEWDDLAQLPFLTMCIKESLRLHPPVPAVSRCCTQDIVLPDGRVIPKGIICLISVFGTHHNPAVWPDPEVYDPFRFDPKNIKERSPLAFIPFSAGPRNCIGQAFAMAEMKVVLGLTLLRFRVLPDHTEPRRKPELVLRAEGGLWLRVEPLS
The experiment in a line: Activity of human recombinant CYP4F3A assessed as enzyme-mediated (3R,3aS,4S,4aR,7R,8aR,9aR)-7-amino-4-((E)-2-(5-(3-fluorophenyl)pyridin-2-yl)vinyl)-3-methyldecahydronaphtho[2,3-c]furan-1(3H)-one formation at 25 uM after 120 mins by LC-MS/MS analysis in presence of NADPH. In kind it is ADME. The settings on record: 2 h.

`CCOC(=O)N[C@@H]1CC[C@@H]2[C@@H](C1)C[C@H]1C(=O)O[C@H](C)[C@H]1[C@H]2/C=[14CH]/c1ccc(-c2cccc(F)c2)cn1`: the Drug metabolism result is listed as “metabolite_detected”.

The values above are taken from ChEMBL document CHEMBL3526033, “Identification of human liver cytochrome P450 enzymes involved in the metabolism of SCH 530348 (Vorapaxar), a potent oral thrombin protease-activated receptor 1 antagonist” (Drug Metab Dispos, 2011).
